# Key:
# [1] = in certain situations; Katsuno et al., PNAS 2003; cited from earlier work
# cells = test: cytoprotective effects on cells, GGA isomers; assay type: cell-based
# Experimental: The isolated cis- and trans-compounds described herein are also useful in assays which access a compound having putative cytoprotective effects. In particular, in such assays, the cis-isomer of GGA will behave as baseline or negative control and the trans-isomer as a positive control. The putative compound is tested in the assay described variously herein and its activity correlated against the cis- and trans-isomers. […] Accordingly, the cis-isomer finds utility as a negative control in the assay.
smiles,measurement,setting,value
"CC(=O)CC/C=C(\C)CC/C=C(\C)CC/C=C(\C)CCC=C(C)C [GGA, Geranylgeranyl acetone]",concentration of GGA required to exert a cytoprotective effect,[1],more than 600 mg per kg per day
"CC(=O)CC/C=C(/C)CC/C=C(\C)CC/C=C(\C)CCC=C(C)C [cis-isomer, 5Z,9E,13E-Geranylgeranyl acetone]",effect of increasing amounts of cis-isomer on activity of trans-isomer,cells; increasing amounts of the cis-isomer,antagonize the activity of the trans-isomer
"CC(=O)CC/C=C(\C)CC/C=C(\C)CC/C=C(\C)CCC=C(C)C [trans-isomer of GGA, 5E,9E,13E-Geranylgeranyl acetone]",cytoprotective efficacy compared with 1:2 to 1:3 cis:trans mixture of GGA and cis-isomer alone,cells; comparison of isomers,more efficacious at lower concentrations

# From patent US20150133431A1, “GGA DERIVATIVES” (COYOTE PHARMACEUTICALS, INC., priority 2013, published 2015)
